This note sets out measurements from US10906904B2, “ADO-resistant cysteamine analogs and uses thereof” (HORIZON ORPHAN LLC, priority 2015, dated 2021).

In one series the test system is St-HdhQ^111/111 cells. The experiment in a line: Glutamate-induced neuronal excitotoxicity assay. In kind it is cell-based. Particulars: STHdhQ111, 6 mM L-glutamate 24 hours, % of effect of 100 μM cysteamine; for viability at 10 µM: read-out: HdhQ^111/111 cell % survival (mean ± STD) Test Conc. 10 μM; for viability at 100 µM: read-out: HdhQ^111/111 cell % survival (mean ± STD) Test Conc. 100 μM. On the procedure: The ability of test compounds to inhibit glutamate-induced excitotoxicity (neuroprotection) in St-HdhQ^111/111 cells was determined by incubating compounds with cells for 60 min at 33° C., 95% (v:v) air/5% (v:v) CO2 in Dulbecco's Modified Eagle Media. Following this, excitotoxicity was induced by the addition of 6 mM L-glutamate for 24 hours. Cell viability was assessed by measuring ATP levels using a luminescent-based CellTitre Glo assay (Promega). Compound neuroprotection (% cell survival) was expressed as a % of the effect recorded with 100 μM cysteamine (denoted as 100% cell survival).

The subject of series [1] is cystinotic human fibroblasts. The experiment in a line: Cystine depletion assay. The note with it: for Cystine Depletion (%) / Emax: relative to cystine depletion by cysteamine (100%) at a similar concentration; for cystine depletion levels (in words): compared to cysteamine; for Cystine depletion: compound at 50 μM or 100 μM, Tables 1-3; for Emax: Homo sapiens, Fibroblast, 1 h. In kind it is cell-based. How it is done: The ability of test compounds to deplete cystine from cystinotic human fibroblasts (Coriell) was determined by incubating compounds with cells for 60 min at 37° C., 95% (v/v) air/5% (v/v) CO2 in Minimal Essential Media Eagle. Treated cell samples were subsequently harvested, then homogenized to ensure plasma and lysosomal membrane disruption. Protein was removed by acid precipitation and cystine in the supernatant measured using LC-MS/MS and HILIC chromatography. Protein levels were determined and cystine levels reported as nM per mg/ml protein. Cystine levels after test compound treatment were expressed as a percentage of that of untreated control cells.
Compounds were assayed at a concentration of 50 μM or 100 μM according to the general methods described above.
Cystine depletion levels for the compounds are expressed in Table 4 as a percent relative to the cystine depletion achieved by cysteamine (c.f. cysteamine 100%) at a similar concentration.
Cystine depletion levels for each of the compounds in Table 5 are expressed as a percent relative to the cystine depletion achieved by cysteamine (c.f. cysteamine 100%) at a similar concentration.

A further series addresses T1, human recombinant ADO (Homo sapiens, UniProt Q96SZ5).
T1 sequence (Q96SZ5 1-270): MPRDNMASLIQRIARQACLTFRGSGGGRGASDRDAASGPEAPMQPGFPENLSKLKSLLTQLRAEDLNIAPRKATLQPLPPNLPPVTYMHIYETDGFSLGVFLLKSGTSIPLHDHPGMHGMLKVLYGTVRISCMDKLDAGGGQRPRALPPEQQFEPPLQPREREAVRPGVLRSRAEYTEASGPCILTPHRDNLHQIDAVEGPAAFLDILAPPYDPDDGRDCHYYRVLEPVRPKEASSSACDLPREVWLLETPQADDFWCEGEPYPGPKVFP
Format: in vitro ADME. How it is done:
The rate of ADO metabolism was determined by incubating 15 mM test compound with 60 μg/ml human recombinant ADO and 20 nM MitoXpress® O2-sensitive fluorescent probe (Luxcel) at 37° C. in assay buffer/salt in a sealed assay chamber. The initial rate of fluorescence (excitation λ380 nm and emission λ650 nm) increase was used to measure ADO-dependent oxygen depletion activity. The ability of ADO to metabolize compounds and concomitantly consume oxygen was expressed relative to that of 15 mM cysteamine.

Another series is described as follows: Cystine reactivity assay. Particulars: 30° C., percentage of 3 mM cysteamine. On the procedure: Cystine reactivity was assessed by incubating 3 mM test compound with 100 nM BODIPY® FL L-Cystine (Life Tech.) at 30° C., pH 7.4 in phosphate buffer. […] Compound cystine reactivity was expressed as a percentage of that of 3 mM cysteamine.
Under resting conditions, the inherent fluorescence of BODIPY® FL L-cystine was very low due to the spatial proximity of the two BODIPY molecules causing quenching. Under chemical reaction (disruption of the S—S bond), the spatial distance was increased, the quenching lost, and measured fluorescence increased. Time (minutes) vs. fluorescence (relative fluorescence units—RFU) was plotted and linear regression analysis was performed to generate a slope value corresponding to the reaction rate in RFU/min and an R2 value.

Setting [2] is: Table 5, read-out: Cystine Depletion (%) Mean Value.
The mark [3] stands for this setting: Table 4, read-out: Cystine Depletion (%).

Read-outs that look alike come from different tables or passages of the source.

`F[C@@H]1CNCC[C@H]1S`: in the series on St-HdhQ^111/111 cells, the viability at 10 µM is 3 ± 7% and the viability at 100 µM was determined as 86 ± 10%.
In the case of `CN1CC[C@@H](S)C1`, in the series on St-HdhQ^111/111 cells, the viability at 10 µM came to 13 ± 13% and the viability at 100 µM was found to be 93 ± 9%.
For `CN1CC[C@H](S)C1`, in that order: 11 ± 11% and 95 ± 6%.
The matching figures for `C[N+]1(C)CCC(S)CC1`: 1 ± 6% and 16 ± 7%.
Consider `C[C@H](N)CS` (single isomer, unassigned) [Compound 42-98], for which the “Cystine Depletion (%)” value in series [1] (Table 4) came to 70%.
Still for that read-out and setting: then `C[C@@H](N)CS` (single isomer, unassigned) [Compound 42099], with 79%.
As for `CNCCS` [Compound 1a], in series [1], the “cystine depletion levels (in words)” value is “slightly decreased cystine depletion levels” and the Cystine depletion is 85%. Moreover, the “Cystine depletion ( ) = disulfide efficacy” value in series [1] (disulfide of the compound, 50 μM or 100 μM) is “(94%)”. In addition, the “metabolism by ADO compared to cysteamine (in words)” value at human recombinant ADO was “significantly reduced metabolism by ADO compared to cysteamine”.
For the compound `SC1CNC1` [Compound 2a], in series [1], the “cystine depletion levels (in words)” value is “slightly decreased” and the Cystine depletion is 82%. The “metabolism by ADO compared to cysteamine (in words)” value at human recombinant ADO is “significantly reduced metabolism by ADO compared to cysteamine”.
As to `CC(C)(N)CS` [Compound 3b], in series [1], the “cystine depletion levels (in words)” value is on record as “similar” and the Cystine depletion worked out at 97%.
Turning to `NC1(CS)CC1` [Compound 3d], in series [1], the “cystine depletion levels (in words)” value is recorded as “slightly decreased” and the Cystine depletion was 55%. Moreover, on human recombinant ADO, the “metabolism by ADO compared to cysteamine (in words)” value was “significantly reduced metabolism by ADO compared to cysteamine”. For the same compound, the ADO metabolism at human recombinant ADO (human, 15 mM) came to 14%.
For `Nc1nc2[nH]cnc2c(=S)[nH]1` [Compound 1141], in series [1] (setting [2]), the Emax amounted to 0%. Also, in “Cystine reactivity assay” (Table 5), the “Cystine Reactivity Assay (30° C.) (%) Mean Value” was under 50%.
In the case of `Oc1ccc2ccccc2c1SSc1c(O)ccc2ccccc12` [Compound 2415], the Emax in series [1] (setting [2]) came out at 14%.
In the case of `CNCCS` [Compound 18781], the “Cystine Depletion (%)” value in series [1] (Table 4) is 92%.
In the case of `CC(C)(N)CS` [Compound 42097], in series [1] (setting [3]), the Emax amounted to 97%.
On the same count and under the same terms, under `CN1CC(SSC2CN(C)C2)C1` [Compound 42151] stands 133%; under `CN1CCCC(SSC2CCCN(C)C2)C1` (stereo not drawn) [Compound 42152], 126%.
Regarding `SCC1CCN1` (stereo not drawn) [Compound 42212], the “Cystine Reactivity Assay (30° C.) (%) Mean Value” in the series “Cystine reactivity assay” (Table 4) was under 50%.
`Sc1ccncc1` [Compound 42338]: the “Cystine Reactivity Assay (30° C.) (%) Mean Value” in the series “Cystine reactivity assay” (Table 4) is recorded as under 50%.
With `CN1CC[C@@H](SS[C@H]2CCN(C)C2)C1` [Compound 42342], the Emax in series [1] (setting [3]) came out at 91%.
Consider `CN1CC[C@H](SS[C@H]2CCN(C)C2)C1` [Compound 42343], for which the Emax in series [1] (setting [3]) stood at 84%.
The same measure, in the same setting: under `CN1C2CCC1CC(SSC1CC3CCC(C1)N3C)C2` (stereo not drawn) [Compound 42344] stands 38%.
As to `CCN1CCC(S)CC1` [Compound 42391], the Emax in series [1] (setting [3]) stood at 60%. In addition, in “Cystine reactivity assay” (Table 4), the “Cystine Reactivity Assay (30° C.) (%) Mean Value” is given as over 90%.
The matching figures for `CC(C)N1CCC(S)CC1` [Compound 42458]: 91% and over 90%.
With `N[C@H]1CC[C@H](S)CC1` [Compound 42492], the “Cystine Reactivity Assay (30° C.) (%) Mean Value” in “Cystine reactivity assay” (Table 4) is recorded as under 50%.
On to `CC1(C)CNCCC1S` (stereo not drawn) [Compound 42609], for which the Emax in series [1] (setting [3]) came to 17%.
Regarding `N[C@@H]1CCCC[C@@H]1S` [Compound 42610], the Emax in series [1] (setting [3]) was 91%. Also, in the series with St-HdhQ^111/111 cells, the viability at 10 µM amounted to 19 ± 6% and the viability at 100 µM turned out to be 77 ± 8%. The “Cystine Reactivity Assay (30° C.) (%) Mean Value” in “Cystine reactivity assay” (Table 4) is on record as over 90%.
In the case of `C[C@H]1CCNC[C@@H]1S` [Compound 42612], the Emax in series [1] (setting [3]) is 98%.
In the case of `C[C@H]1C[C@@H](S)CCN1` [Compound 42618], in series [1] (setting [3]), the Emax stood at 49%.
For `NC1CCC(S)C1` (stereo not drawn) [Compound 42691], in “Cystine reactivity assay” (Table 4), the “Cystine Reactivity Assay (30° C.) (%) Mean Value” is recorded as 50-90%.
Turning to `N[C@@H]1CCCC[C@H]1S` [Compound 42692], the Emax in series [1] (setting [3]) is 100%. Further, in the series with St-HdhQ^111/111 cells, the viability at 10 µM was determined as 82 ± 4% and the viability at 100 µM was found to be 71 ± 5%. Further, the “Cystine Reactivity Assay (30° C.) (%) Mean Value” in “Cystine reactivity assay” (Table 4) was over 90%.
The matching figures for `N[C@H]1CCCC[C@@H]1S` [Compound 42693]: 110%, 80 ± 10%, 77 ± 9% and over 90%.
Turning to `FC1(F)CCNC[C@@H]1S` [Compound 42694], the Emax in series [1] (setting [3]) was determined as 20%. In addition, the “Cystine Reactivity Assay (30° C.) (%) Mean Value” in the series “Cystine reactivity assay” (Table 4) is under 50%.
As for `N[C@H]1C[C@H](S)C1` [Compound 142460], the Emax in series [1] (setting [2]) worked out at 78%. For the same compound, the “Cystine Reactivity Assay (30° C.) (%) Mean Value” in the series “Cystine reactivity assay” (Table 5) is on record as 50-90%.
As to `O=c1[nH][se]c2ccccc12` [Compound 145565], in series [1] (setting [2]), the Emax came to 31%.
Consider `SCC1CNC1` [Compound 145585], for which, in series [1] (setting [2]), the Emax was 11%. Further, in the series on St-HdhQ^111/111 cells, the viability at 10 µM is 13 ± 10% and the viability at 100 µM was 100 ± 9%. In addition, the “Cystine Reactivity Assay (30° C.) (%) Mean Value” in the series “Cystine reactivity assay” (Table 5) is listed as over 90%.
For `SC[C@@H]1CCCCN1` [Compound 145592], in that order: 156%, 17 ± 10%, 88 ± 8% and over 90%.
`CSC1(C)CCNCC1` [Compound 145691]: in series [1] (setting [2]), the Emax is 0%.
On to `CC(=O)SC1CCNCC1` [Compound 145692], for which the Emax in series [1] (setting [2]) was found to be 75%.
Regarding `FC1(F)CN[C@@H](CS)C1` [Compound 149607], in series [1] (setting [2]), the Emax amounted to 17%. Further, in the series on St-HdhQ^111/111 cells, the viability at 10 µM came to 32 ± 9% and the viability at 100 µM was 98 ± 12%. Further, the “Cystine Reactivity Assay (30° C.) (%) Mean Value” in the series “Cystine reactivity assay” (Table 5) was over 90%.
Take `FC1(F)CN[C@H](CS)C1` [Compound 149611]: the Emax in series [1] (setting [2]) is 27%. Further, in the series on St-HdhQ^111/111 cells, the viability at 10 µM amounted to 35 ± 13% and the viability at 100 µM was determined as 102 ± 13%. Also, in the series “Cystine reactivity assay” (Table 5), the “Cystine Reactivity Assay (30° C.) (%) Mean Value” was over 90%.
`CC1(S)CCNC1` (stereo not drawn) [Compound 150731]: the Emax in series [1] (setting [2]) stood at 58%. Besides, in the series “Cystine reactivity assay” (Table 5), the “Cystine Reactivity Assay (30° C.) (%) Mean Value” was over 90%.
Turning to `C[C@]1(S)CCCNC1` [Compound 151181], the Emax in series [1] (setting [2]) amounted to 69%. In the series on St-HdhQ^111/111 cells, the viability at 10 µM came out at 3 ± 8% and the viability at 100 µM is 90 ± 9%. Further, the “Cystine Reactivity Assay (30° C.) (%) Mean Value” in “Cystine reactivity assay” (Table 5) is on record as 50-90%.
For `C[C@@]1(S)CCCNC1` [Compound 151182], in that order: 59%, 1 ± 5%, 85 ± 11% and 59-90%.
For the compound `N[C@H]1C[C@@H](SS[C@H]2C[C@@H](N)C2)C1` [Compound 151270], the Emax in series [1] (setting [2]) turned out to be 3%.
On to `N[C@H]1C[C@H](SS[C@H]2C[C@H](N)C2)C1` [Compound 151271], for which the Emax in series [1] (setting [2]) turned out to be 27%.
Same read-out and setting: under `CC1(SSC2(C)CCNCC2)CCNCC1` [Compound 151272] stands 11%; under `CC1(S)CC(N)C1` (stereo not drawn) [Compound 152071], 70%.
